Assay results as given in US12084407B2, “Cannabigerol derivatives and use thereof as cannabinoid receptor modulators” (CANOPY GROWTH CORPORATION, priority 2019, dated 2024).
Like-named read-outs stand apart in the source and are kept apart here.

Experiments:
human CB1 receptor = target: T1, human CB1 receptor (Homo sapiens, UniProt P21554); assay: CB1 radioligand competitive binding assay ([3H]CP 55,940 displacement)
T1 construct: host or cells: CHO-K1

human CB2 receptor = target: T2, human CB2 receptor (Homo sapiens, UniProt P34972); assay: CB2 radioligand competitive binding assay ([3H]CP 55,940 displacement); conditions: for Selectivity CB2: fold difference in selectivity between CB1 and CB2 binding, in the column of the receptor with the higher binding affinity
T2 construct: host or cells: CHO-K1
Protocol: Compounds of the present disclosure were tested for CB1 receptor binding affinity and for CB2 receptor binding affinity. As used herein, “binding affinity” is represented by the IC50 value, which was experimentally determined as described herein. The lower the IC50 value the higher the binding affinity. A compound of the present disclosure may be said to have “binding selectivity” if it has a higher binding affinity for one receptor compared to the other.
The membranes were prepared from CHO-K1 (Chinese hamster ovary) cells stably transfected with the human CB2 receptor (Cat. #ES-111-C; Perkin Elmer, Boston, MA). The cells were grown adherently and maintained in Ham's F12 medium containing 10% fetal bovine serum (FBS), penicillin, streptomycin and geneticin (G418) at 37° C. in a humid atmosphere of 5% CO2 following the manufacturer's instructions.
For membrane preparation the cells were washed with PBS and scraped off the plates in cold homogenization buffer (25 mM HEPES (pH 7.4), 2 mM EDTA) containing protease inhibitor cocktail (Sigma Cat. #P8340). The cell suspension was homogenized with a Pro-PK-01200D Polytron Homogenizer (Pro Scientific) and then centrifuged for 30 min at 120,000×g. The supernatant was discarded and the pellet was re-suspended in the homogenization buffer and stored at −80° C. until the time of use.
In this experiment, 3H radiolabeled CP 55,940, i.e. [3H]CP 55,940 (Perkin Elmer, Boston, MA), was used as a radioligand for the CB2 receptor to determine the binding affinity of compounds for the CB2 receptor (Scheme 7; above).
The competition binding experiments (single dose and dose-response) were performed by incubating 0.6 nM of [3H]CP55,940 (specific activity 101 Ci/mmol, Perkin Elmer) and different concentrations of compounds disclosed herein with membranes prepared as above from CHO-K1 cells expressing human CB2 receptor (1 μg of protein/well), 50 mM Tris-HCl (pH 7.4), 5 mM MgCl2, 1 mM CaCl2, and 2 mg/mL BSA.
For the single dose experiments, the compound stocks (usually 10 mM in DMSO) were diluted to working stocks in the binding buffer to give the final compound concentrations of 10 μM and 1 μM. For the dose-response experiments the test compounds were sequentially diluted to provide the desired concentration range for the IC50 determination. In each case the compounds were pre-incubated with the membrane for 20 min, before adding the radioligand.
After incubation with the radioligand for 60 min at 37° C., the incubation was terminated by rapid filtration of assay mixture through MultiScreen®HTS^+ 96-well filter plates (Millipore, Cat. #MSFCNXB), pre-soaked for 60 min with 50 mM Tris-HCl (pH 7.4) containing 0.33% polyethylenimine (PEI). The nonspecific binding (NSB) was determined in the presence of 10 μM unlabelled CP55,940. After drying the filter plate at 50° C. for at least 60 min, the filter-bound radioactivity was determined by scintillation spectrometry using the 1450 MicroBeta Plate Counter (Perkin Elmer, Boston, MA). From the dose-response experiments, the IC50 values were determined (see Table 1, CB2 IC50).
Where the test compound had about the same affinity for both receptors, this is represented by a value of 1.00 in the column for both receptors.

[1] = 0.8 nM [3H]CP 55,940, membranes from CHO-K1 cells expressing human CB1 receptor, dose-response, read-out: CB1 IC50
[2] = 0.6 nM [3H]CP55,940, membranes from CHO-K1 cells expressing human CB2 receptor, dose-response, read-out: CB2 IC50

T2 sequence (P34972 whole entry): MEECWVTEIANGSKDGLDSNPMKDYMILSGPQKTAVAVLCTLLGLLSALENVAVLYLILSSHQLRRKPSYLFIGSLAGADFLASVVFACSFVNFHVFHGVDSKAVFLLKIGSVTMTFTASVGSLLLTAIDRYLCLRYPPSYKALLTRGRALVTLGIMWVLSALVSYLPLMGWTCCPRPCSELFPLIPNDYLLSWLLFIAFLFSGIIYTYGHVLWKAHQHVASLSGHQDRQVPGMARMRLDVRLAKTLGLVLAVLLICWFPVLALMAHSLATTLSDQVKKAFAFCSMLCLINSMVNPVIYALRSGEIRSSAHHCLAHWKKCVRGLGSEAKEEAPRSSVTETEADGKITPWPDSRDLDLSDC
T1 sequence (P21554 whole entry): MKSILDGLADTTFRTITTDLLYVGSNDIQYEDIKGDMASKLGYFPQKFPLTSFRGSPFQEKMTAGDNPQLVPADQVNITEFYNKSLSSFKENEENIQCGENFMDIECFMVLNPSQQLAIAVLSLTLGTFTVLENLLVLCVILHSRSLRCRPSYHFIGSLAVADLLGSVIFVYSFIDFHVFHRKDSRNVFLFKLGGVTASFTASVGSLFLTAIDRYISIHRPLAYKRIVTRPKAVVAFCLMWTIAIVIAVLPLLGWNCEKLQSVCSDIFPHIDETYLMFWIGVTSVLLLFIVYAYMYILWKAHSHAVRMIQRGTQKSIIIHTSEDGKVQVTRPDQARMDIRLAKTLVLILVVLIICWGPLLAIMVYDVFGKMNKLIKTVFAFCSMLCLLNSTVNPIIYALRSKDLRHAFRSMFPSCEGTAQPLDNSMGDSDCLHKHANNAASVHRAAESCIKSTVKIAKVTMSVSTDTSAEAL

SMILES | IC50 (human CB1 receptor; [1]) [nM] | IC50 (human CB2 receptor; [2]) [nM] | Selectivity CB2 (human CB2 receptor) [fold] | IC50 (human CB1 receptor) [nM] | IC50 (human CB2 receptor) [nM]
CCCCCc1cc(O)c(C/C=C(\C)CCC=C(C)C)c(O)c1S(C)(=O)=O [Compound 3, 2-(3,7-dimethylocta-2,6-dien-1-yl)-4-(methylsulfonyl)-5-pentylbenzene-1,3-diol] | > 1000 | 500 to 990 | 1.47 | – | –
CCCCCc1cc(O)c(C/C=C(\C)CCC=C(C)C)c(O)c1S(=O)(=O)NC [Compound 20, 3-(3,7-dimethylocta-2,6-dien-1-yl)-2,4-dihydroxy-N-methyl-6-pentylbenzenesulfonamide] | – | – | 3.93 | > 1000 | 100 to 490
CCCCCc1cc(O)c(C/C=C(\C)CCC=C(C)C)c(O)c1S(=O)(=O)NC(C)C [Compound 23, 3-(3,7-dimethylocta-2,6-dien-1-yl)-2,4-dihydroxy-N-isopropyl-6-pentylbenzenesulfonamide] | > 1000 | 100 to 490 | 18.43 | – | –
CCCCCc1cc(O)c(C/C=C(\C)CCC=C(C)C)c(O)c1S(=O)(=O)Nc1ccccc1 [Compound 24, 3-(3,7-dimethylocta-2,6-dien-1-yl)-2,4-dihydroxy-6-pentyl-N-phenylbenzenesulfonamide] | 100 to 490 | < 100 | 61.50 | – | –
CCCCCc1cc(O)c(C/C=C(\C)CCC=C(C)C)c(O)c1S(=O)(=O)N1CCOCC1 [Compound 28, 2-(3,7-dimethylocta-2,6-dien-1-yl)-4-(morpholinosulfonyl)-5-pentylbenzene-1,3-diol] | 500 to 990 | < 100 | 266.67 | – | –
CCCCCc1cc(O)c(C/C=C(\C)CCC=C(C)C)c(O)c1C(=O)NS(=O)(=O)c1ccccc1 [Compound 58, 3-(3,7-dimethylocta-2,6-dien-1-yl)-2,4-dihydroxy-6-pentyl-N-(phenylsulfonyl)benzamide] | > 1000 | > 1000 | 1.88 | – | –
CCCCCc1cc(O)c(C/C=C(\C)CCC=C(C)C)c(O)c1S(=O)(=O)NC1CCCCC1 [Compound 62, N-cyclohexyl-3-(3,7-dimethylocta-2,6-dien-1-yl)-2,4-dihydroxy-6-pentylbenzenesulfonamide] | > 1000 | 100 to 490 | 9.04 | – | –
CCCCCc1cc(O)c(C/C=C(\C)CCC=C(C)C)c(O)c1S(=O)(=O)NC1CCC1 [Compound 63, N-cyclobutyl-3-(3,7-dimethylocta-2,6-dien-1-yl)-2,4-dihydroxy-6-pentylbenzenesulfonamide] | > 1000 | < 100 | 24.80 | – | –
CCCCCCNS(=O)(=O)c1c(CCCCC)cc(O)c(C/C=C(\C)CCC=C(C)C)c1O [Compound 64, 3-(3,7-dimethylocta-2,6-dien-1-yl)-N-hexyl-2,4-dihydroxy-6-pentylbenzenesulfonamide] | > 1000 | 100 to 490 | 7.89 | – | –
C=CCNS(=O)(=O)c1c(CCCCC)cc(O)c(C/C=C(\C)CCC=C(C)C)c1O [Compound 65, N-allyl-3-(3,7-dimethylocta-2,6-dien-1-yl)-2,4-dihydroxy-6-pentylbenzenesulfonamide] | > 1000 | < 100 | 25.50 | – | –
CCCCCc1cc(O)c(C/C=C(\C)CCC=C(C)C)c(O)c1C(=O)NS(=O)(=O)c1cccnc1 [Compound 66, 3-(3,7-dimethylocta-2,6-dien-1-yl)-2,4-dihydroxy-6-pentyl-N-(pyridin-3-ylsulfonyl)benzamide] | > 1000 | > 1000 | 1.88 | – | –
CCCCCc1cc(O)c(C/C=C(\C)CCC=C(C)C)c(O)c1S(=O)(=O)Oc1ccccc1 [Compound 67, phenyl-3-(3,7-dimethylocta-2,6-dien-1-yl)-2,4-dihydroxy-6-pentylbenzenesulfonate] | > 1000 | 100 to 490 | 20.83 | – | –
